Where two headings read alike, the source gives them in different places.
Key:
Format in all cases: cell-based
[1] = test system: Toxoplasma gondii strains expressing FLUC; test: microbe, parasite or virus in culture
Experimental: The ability of bicyclic azetidines to inhibit different strains of T. gondii was tested using a series of firefly luciferase (FLUC)-tagged lines. […] A similar strategy was utilized to derive FLUC expressing lines from additional T. gondii strains MAS (type 4) and FOU (type 6).

[2] = test system: Toxoplasma gondii tachyzoites (ME49-FLUC, type 2); test: T. gondii ME49-FLUC tachyzoite growth inhibition in HFF, luciferase assay; settings: T. gondii ME49-FLUC (type 2) tachyzoites in HFF
Experimental: Toxoplasma gondii tachyzoites (ME49-FLUC, type 2) (27) were serially passaged in human foreskin fibroblasts (HFF) cultured in complete DMEM medium (DMEM supplemented with 10% fetal bovine serum (FBS), glutamine (10 mM) and gentamycin (10 μg/mL)). For each assay described, infected monolayers were scraped, needle passed (23 ga), and parasites were separated from host cell debris using a three (3) micron pore polycarbonate filter. HeLa cells were cultured in MEM media that contained 10% FBS, 4 mM L-glutamine and 10 mM HEPES solution. Cell culture and assays were conducted using a 37° C. incubator with 5% CO2. Cell cultures were negative for mycoplasma, as determined using the e-Myco plus kit (Intron Biotechnology).
White, clear bottom 96-well assay plates were set up as described above with the following modifications. Only the inner 60 wells were used for the assay in order to reduce variability that results from evaporation during incubation. Dilution of compound stock is as described above, with all wells containing a final concentration of 0.1% DMSO. DMSO (vehicle control) and pyrimethamine (2.5 μM, positive control) were included in the outside wells of all plates as controls. Liquid handling (serial dilutions, compound dilutions, cell feeding, plate-to-plate transfers, etc.) utilized a Dual Pod Biomek FX. Luciferase assays were performed using the integrated and automated platform (Beckman Coulter). The SAMI EX software was used to design and execute the screening assay and enabled efficient and uniform assay execution across all the assay plates.

[3] = test system: Neospora caninum parasites (NC-1 strain); test: N. caninum (NC-1, lac-Z) growth inhibition in HFF, β-Gal assay; settings: N. caninum NC-1 lac-Z, 72 h, 10-point dose response 5 μM-0.01 μM, average of three biological replicates, read-out: EC50
Experimental: Neospora caninum parasites (NC-1 strain) expressing a lac-Z transgene (1) were serially passaged as tachyzoites in human foreskin fibroblasts cultured in DMEM supplemented with 10% fetal bovine serum (FBS), glutamine (10 mM) and gentamycin (10 μg/mL). Mature cultures were scraped, syringe passed using a 25 g needle to release parasites, filtered through a 3 micron polycarbonate filter to remove host cell debris and counted prior to each assay. All cultures were maintained in a 37° C. incubator with 5% CO2 and were verified mycoplasma free using the e-Myco plus Mycoplasma PCR detection kit (Boca Scientific).
Compounds were prepared as 10 mM stock in 100% DMSO. Pyrimethamine (positive control) and DMSO were included as controls in all plates and all replicates. The EC50 values were determined using a 10-point dose response curve using a 2-fold dilution series from 5.0 μM to 0.01 μM across the plate. Experiments were conducted in 96-well plates containing confluent HFF cells. Each assay plate was inoculated with 1×10^3 parasites (100 μL) containing 100 μL of 2× compound and incubated for 72 h prior to preparation for the j-Gal assay as described in Seeber, F. et al., Gene 169 (1996): 39-45, hereby incorporated by reference in its entirety and particularly in relation to the β-Gal assay protocol. Briefly, culture medium was replaced, wells rinsed with 200 μL of PBS followed by incubation with 50 μL of lysis buffer (100 mM HEPES, 1 mM MgSO4, 1% Triton X-100, 5 mM DTT) for 10 min at 50° C.
EC50 values determined from 10-point dose response curve (5 μM-0.01 μM) and presented as the average of three biological replicates. Linear regression and dose response inhibition (log ([compound]) vs normalized response-variable slope) were performed with Prism 8 for Mac (Graphpad Software, Inc.) and both the fits and data are shown in FIG. 1. Values represent the average of three biological replicates each with two internal replicates and are plotted as mean±S.E.M.

Q: `COc1ccc(NC(=O)N2CCCCN3[C@H](CN(C)C)[C@H](c4ccc(C#Cc5ccccc5)cc4)[C@@H]3C2)cc1` [Compound 15, (8R,9S,10S)-10-((dimethylamino)methyl)-N-(4-methoxyphenyl)-9-(4-(phenylethynyl)phenyl)-1,6-diazabicyclo[6.2.0]decane-6-carboxamide] was tested. Which EC50 ([1]; genotype 4, read-out: Average EC50 ± S.D.) did it give?
A: 41.9 nM

Q: And the EC50 ([1]; genotype 5, read-out: Average EC50 ± S.D.)?
A: 26.9 nM

Q: What about the EC50 ([1]; genotype 6, read-out: Average EC50 ± S.D.) of the same molecule?
A: 45.1 nM

Q: What about the EC50 ([1]; strain ME49, genotype 2, three or more independent titrations, read-out: Average EC50 ± S.D.) of the same molecule?
A: 49.4 nM

Q: What about the EC50 ([1]; strain VAND, genotype 10, three or more independent titrations, read-out: Average EC50 ± S.D.) of the same molecule?
A: 27.9 nM

Q: And the EC50 [2]?
A: 22.6 nM

Q: What about the EC50 [3] of the same molecule?
A: 250 nM

— US12600727B2, “Treatment of infections of toxoplasma gondii and closely related parasites” (WASHINGTON UNIVERSITY, priority 2018, dated 2026)
